The record followed here is patent publication US20230003721A1, “MITOTHERAPEUTICS FOR THE TREATMENT OF BRAIN DISORDERS” (The University of Florida Research Foundation, Inc., priority 2019, published 2023).

For assay [1], the system named is primary neurons. In words: TMRM fluorescence assay of inner mitochondrial membrane potential (ΔΨm). The settings on record: for Emax / EC50: Mus musculus, Primary neuron; for Emax: read-out: TMRM (Effect-size); for TMRM Primary: primary screen, 12.5 μM; for TMRM Primary / TMRM Rescreen: 24 h; for EC50: read-out: TMRM-EC50.
The test system of assay [2] is primary neurons. In words: CellTiter-Glo luminescence-based ATP assay. It is filed as cell-based, mouse. The settings on record: for ATP: ATP orthogonal screen, 24 h; for Emax / EC50: Mus musculus, Primary neuron, dose response; for Emax: maximal percent increase relative to in-plate DMSO controls, read-out: ATP (Effect-size); for ATP production in neurons: after 24 hr of treatment; for EC50: 15 concentrations from 6 nM to 100 uM. The gist of the method:
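Primary neurons treated from DIV13 for 24 h with compound or DMSO. After part of the medium was removed, CellTiter-Glo reagent was added; plates were shaken 10 min at 200 rpm, kept 2 min in the dark at room temperature, and luminescence read as total ATP.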

In assay [3] the test system is primary neurons. The assay can be described thus: Oxygen consumption rate (OCR) of permeabilized primary neurons. It is filed as cell-based, mouse.
Procedure: The oxygen consumption rate (OCR) of permeabilized neurons and isolated brain mitochondria (from 9-month old mice) was measured by the XF96 Extracellular Flux analyzer (Seahorse Bioscience). […] Prior to the start of the OCR measurement, all but 30 μl of Neurobasal A/B27 culture medium was removed from each well. Cells were washed twice with pre-warmed MAS-BSA assay medium (4 mg/ml fatty-acid free BSA, pH=7.2) and incubated in 180 μl at 37° C. for 5 min. Following the cartridge calibration, cells were loaded into the XF96 Extracellular Flux analyzer and further equilibrated for 10 min with two cycles of 3 min mixing and 2 min resting prior to the first measurement of basal respiration. OCR were measured at 37° C. under basal conditions followed by the sequential injection of pre-warmed 10× mitochondrial substrates/ADP (20 μl), oligomycin (22 μl), FCCP (24 μl), and rotenone/antimycin A (26 μl). The final concentrations of injected compounds were as follows: 10 mM mitochondrial substrates (pyruvate/malate or succinate), 1 mM ADP, 1.5 μM oligomycin, 3 μM FCCP, 2 μM rotenone/antimycin A. Saponin (25 μg/ml) was co-injected with substrate/ADP to permeabilize the cells and stimulate ADP-dependent respiration. Two baseline measurements were obtained prior to any injection and 2 response measurements were collected after each injection except for after FCCP addition which consisted of 1 measurement (9 total measurements in each assay). Each measurement cycle consisted of 2 min mixing, 2 min waiting, and 3 min data acquisition. This protocol allowed for sequential assessment of basal cell respiration, maximal mitochondrial respiratory capacity (State 3 with substrate/ADP), proton leak (State 4o with oligomycin), uncoupled maximal respiration (State 3U with FCCP) and non-mitochondrial respiration with the Complex I/Complex III inhibitors, rotenone/antimycin A. Cells were washed twice with MAS buffer to remove residue BSA contained in the assay medium, lysed in 50 μl lysis buffer (25 mM HEPES, 1 mM EGTA, 1 mM EDTA, 0.1% SDS, 1% NP-40, 1× protease and phosphatase inhibitor, pH 7.0 adjusted with NaOH) and total protein was determined by BCA assay. Oxygen consumption was normalized to total protein content as pmol O2/min/ug total protein.
Oxygen consumption rate (OCR) or extracellular acidification rate (ECAR) measurements from permeabilized neurons and isolated brain mitochondria were performed using the XF96 Extracellular Flux analyzer (Seahorse Bioscience). For assays using cultured neurons, primary neurons were dissociated from the forebrains of P0 pups, seeded at 1.9×10^4/well (PDL-coated XF96 plate), cultured to DIV13 and incubated with selected compounds or DMSO (0.1%) for 24 h. Prior to the start of the OCR measurement, all but 30 μl of Neurobasal A/B27 culture medium was removed from each well. Cells were washed twice with pre-warmed MAS-BSA assay medium (70 mM sucrose, 220 mM mannitol, 10 mM KH2PO4, 5 mM MgCl2, 2 mM HEPES and 1 mM EGTA, 4 mg/ml fatty-acid free BSA, pH=7.2 adjusted using KOH) and incubated in 180 ul MAS-BSA medium at 37° C. in a CO2-free incubator for 5 m. […] OCR and ECAR were measured at 37° C. under basal conditions followed by the sequential injection of pre-warmed 10× mitochondrial substrates/ADP (20 μl), oligomycin (22 μl), FCCP (24 μl), and rotenone/antimycin A (26 μl).
In assay [4] the test system is primary neurons. The assay can be described thus: Mitochondrial morphology and neurite area after functional modulators. It is filed as cell-based, mouse. More on the design: key to Neurite Area: non-significant (n.s.). The settings on record: for Mitochondrial Morphology / Neurite Area: significant change. The procedure:
Mitochondrial morphology and neurite area measurements. Mitochondrial morphology and neurite area were quantified using methods described by Varkuti et al, 2020. Briefly, Cre-dependent mitochondrial targeted GFP2 (mito-GFP) ROSA26 knock-in mice were crossed with Ai14 (007908, The Jackson Laboratory) expressing cytosolic-tdTomato, and the forebrain of P0 pups were isolated and primary neurons were cultured as described above. AAV9 virus containing the iCRE sequence driven by the neuron specific CaMKII promoter was added to the cell culture at plating and 75% of the media replaced 4 h after plating. […] Z-projected images of the green channel were preprocessed (background subtraction: rolling ball, radius=3; median filtering: radius=1) and somatic mitochondria were removed (see details in Varkuti et al, Science Advances 6 (2020) eaaw8702). Red channel images were also preprocessed (tubeness filter, soma removal). Preprocessed images were segmented by GE Developer software (object-based, kernel size: 3). […] The length and circularity measurements for mitochondria were aggregated using the median and the area for neurites using the sum. After removing empty fields and outlier values from the fields, aggregated field values were averaged to well values (4 fields/well, 12 wells/compound). Robust Z-scores were calculated using DMSO-treated wells for each well ((mediancompound−medianDMSO)/median absolute deviationDMSO), well values were averaged for each compound.
A high-content assay was developed in parallel to monitor aspects of mitochondrial dynamics in primary cultured neurons that conditionally express (Cre recombinase dependent) mitochondrial-tagged GFP and cytosolic tdTomato reporters (Varkuti et al., 2020). We monitored two aspects of neuritic mitochondrial dynamics: (1) the health of mitochondria as measured by the average circularity of axonal mitochondria, since defective mitochondria targeted for mitophagy become circular in shape, and (2) the balance between fission/fusion measured by the average length of dendritic mitochondria. […] FIG. 19A illustrates the results of surveying a collection of functional modulators selected from 5 different structural clusters (FIG. 17), quantified as robust z-scores relative to DMSO-treated control neurons.

In assay [5] the test system is primary forebrain neurons. The assay can be described thus: cells. As to conditions: 24 h; for EC50: Mus musculus, Neuron; for Dendritic Mt CA / Neurite Area: rescreen, 12.5 μM, vs DMSO wells.
The subject of assay [6] is isolated forebrain mitochondria. In words: ATP production of isolated mitochondria (luciferase-based kinetic assay). It is filed as biochemical, mouse. The settings on record: for ATP production kinetics, amplitude of single exponential fit: 12 μM, starting 20 min after addition, DMSO 22498±358; for ATP production of isolated mitochondria (direct effect): 12.5 μM, within the 45-min measurement period, vs DMSO. The method, then:
Isolation of mitochondria. For the ATP synthesis experiments of FIG. 6, forebrains from P0 pups were dissected as described above. 2×10^7 cells were harvested for high-purity mitochondrial isolation using the Qiagen QProteome kit. The mitochondrial pellet was resuspended in 500 μl mitochondria storage buffer (provided by kit) and kept on ice until further use.
ATP production of isolated forebrain mitochondria of P0 pups was measured by ATP Determination Kit (Molecular Probes). […] The reactions were initiated by the addition of 1 mM ADP (deprived of ATP contamination by adding 3 U/ml hexokinase to 10 mM of ADP in 50 mM Tris-HCl, 20 mM MgCl2 and 22 mM glucose, incubating the solution at 37° C. for 1 hr and heat inactivating the hexokinase at 100° C. for 3 min). Luminescence was recorded every 15-30 sec for 1 hr at 580±40 nm.

Assay [7] deals with Drosophila model for AD. The assay can be described thus: Drosophila model for AD: neuronal mitochondrial morphology. As to conditions: cell bodies of neurons; 100 micromolar, 15 days-of-age. It is filed as in vivo. The text has this:
To assay representative compounds in this example, we employed a Drosophila model for AD (X. Wang et al., Mol. Neurobiol. […] Flies expressing this toxic protein show: […] Drugs that show efficacy therefore: enlarge neuronal mitochondria (increased volume, increased surface area, increased length), reduce sphericity, and reduce the number of mitochondria compared to untreated Alzheimer's flies. The AD model flies were collected immediately after eclosion from the pupal case and transferred to food that was laced with drug at 100 micromolar concentration. The flies were aged to 15 days-of-age: this is when the mitochondrial pathology is very robust. We compared the morphology of mitochondria collected from these flies treated with drug and compared them to the mitochondria of flies that remained untreated.

For assay [8], the system named is primary neurons. The settings on record: 12.5 μM compound, 48 h; for protection from peroxide (PO) induced mitochondrial fragmentation: 75 μM peroxide.
Assay [9] has as its system primary forebrain neurons. As to conditions: 25 μM glutamate, 48 h.
[10] abbreviates: read-out: Elongation (Dend Mt length) EC50.
[11] abbreviates: read-out: Health (Ax Mt Circularity) EC50.
Setting [12] is: read-out: Mt Content (Dend Mt CA) EC50.
Setting [13] is: read-out: Sprouting (Neurite Area) EC50.

Counter-ions that a name gives are not always drawn. Like-named read-outs stand apart in the source and are kept apart here. Bounds are passed on as bounds.

In the case of `CN(C)CCC=C1c2ccccc2COc2ccccc21` [doxepin hydrochloride], in [1], the Emax is 26.1%, the “TMRM Primary” value is given as 3.44 Z-scores and the “TMRM Rescreen” value is given as 5.41 Z-scores. Moreover, in assay [2], the ATP stood at 7.03 Z-scores and the Emax came to 18.3%. Moreover, the “basal rate of respiration” value in assay [3] (10 μM, 24 h) is given as “weak, non-significant, but consistent trend towards an increased basal rate of respiration”. Also, in [3] (10 μM, 24 h, cultured neurons), the “State 3 and 3u respiration with Complex I substrates” value was “significant increase”. Moreover, in [3] (oxygen consumption rate, significant change), the OCR result is “increased”. Further, the axonal mitochondrial circularity entry in [4] (after 48 h of treatment) was “robust effects”. For the same compound, in assay [4], the “Mitochondrial Morphology” value is on record as “elongated” and the “Neurite Area” value is reported as “n.s”.
Turning to `COc1cc(O)c2c(=O)c(O)c(-c3ccc(O)c(O)c3)oc2c1` [RHAMNETIN], the EC50 (usually the concentration at which the effect is half-maximal) in [5] (setting [10]) is 200 nM; in [5] (setting [11]) it was 2700 nM; in [5] (setting [12]), 200 nM; in assay [5] (setting [13]), 300 nM. Moreover, the “Dendritic Mt CA” value in assay [5] stood at 4.48 robust Z-scores. Further, the “Neurite Area” value in assay [5] stood at 2.04 robust Z-scores. For the same compound, in assay [2], the “ATP production in neurons” value is “increase”. In assay [6], the “ATP production kinetics, amplitude of single exponential fit” value was 10059±166. In assay [6], the “ATP production of isolated mitochondria (direct effect)” value is on record as “decreased”. Moreover, the “Surface area of mitochondria, p (treated vs untreated)” value in [7] is reported as “p = 0.0564”. Also, the “protection from peroxide (PO) induced mitochondrial fragmentation” value (from here on “protection from peroxide”) in assay [8] is recorded as “fully protected”.
As to `O=c1[nH]c2ccccc2n1C1CCN(CCCC(c2ccc(F)cc2)c2ccc(F)cc2)CC1` [pimozide], in [1], the Emax came out at 25.1%, the EC50 was found to be 130 nM, the “TMRM Primary” value was determined as 2.65 Z-scores and the “TMRM Rescreen” value turned out to be 3.74 Z-scores. Also, in assay [2], the ATP was 6.60 Z-scores, the EC50 amounted to 90 nM and the Emax amounted to 20.4%. The “Surface area of mitochondria, p (treated vs untreated)” value in assay [7] is reported as “p = 0.017”.
Regarding `COc1ccccc1OCCNCC(O)COc1cccc2[nH]c3ccccc3c12` (stereo not shown) [carvedilol], in [1], the Emax was 20.2%, the concentration giving a half-maximal response (EC50) was found to be 350 nM, the “TMRM Primary” value was found to be 4.11 Z-scores and the “TMRM Rescreen” value came out at 5.71 Z-scores. For the same compound, in [2], the ATP was determined as 5.32 Z-scores, a half-maximal response (EC50) required 230 nM and the Emax turned out to be 15.9%. The “Surface area of mitochondria, p (treated vs untreated)” value in assay [7] is recorded as “p = 0.078”.
On to `CCN(CCCc1ccccc1)CCCc1ccccc1` [ALVERINE CITRATE], for which, in assay [5] (setting [10]), the EC50 was determined as 2900 nM. Also, the EC50 in assay [5] (setting [11]) was 300 nM. Besides, the half-maximal effective concentration (EC50) in assay [5] (setting [12]) turned out to be 200 nM. In addition, the EC50 in assay [5] (setting [13]) was greater than 25000 nM. For the same compound, in [5], the “Dendritic Mt CA” value turned out to be 5.09 robust Z-scores and the “Neurite Area” value is given as −1.50 robust Z-scores. In addition, in assay [1], the “TMRM Primary” value is 4.24 Z-scores and the “TMRM Rescreen” value turned out to be 4.15 Z-scores. In addition, in assay [2], the ATP is 4.56 Z-scores and the “ATP production in neurons” value was “increased”. For the same compound, in assay [6], the “ATP production kinetics, amplitude of single exponential fit” value is given as 28383±278 and the “ATP production of isolated mitochondria (direct effect)” value was “significantly increased”. For the same compound, the “protection from glutamate (GLUT) induced mitochondrial fragmentation” value in [8] (25 μM glutamate) is reported as “fully protected”. Moreover, the “protection from peroxide” value in [8] is reported as “fully protected”. Further, the “live:dead cell ratio in the presence of toxic concentrations of glutamate” value in [9] is “offered protection”.
For the compound `Cc1ccccc1C(OCCN(C)C)c1ccccc1` (stereo not shown) [ORPHENADRINE CITRATE], in assay [5], the “Dendritic Mt CA” value was determined as 3.21 robust Z-scores and the “Neurite Area” value is 0.08 robust Z-scores. For the same compound, in [1], the Emax was found to be 25.5%, the “TMRM Primary” value worked out at 3.26 Z-scores and the “TMRM Rescreen” value worked out at 5.75 Z-scores. Also, in assay [2], the ATP is recorded as 6.08 Z-scores and the Emax was 14.3%. Besides, the “Surface area of mitochondria, p (treated vs untreated)” value in [7] is listed as “p = 0.022”. Moreover, the “protection from peroxide” value in assay [8] is given as “fully protected”.
For `OC1(c2ccc(Cl)c(C(F)(F)F)c2)CCN(CCCC(c2ccc(F)cc2)c2ccc(F)cc2)CC1` [penfluridol], in [1], the Emax was 25.2%, the 50% effective concentration (EC50) came to 50 nM, the “TMRM Primary” value turned out to be 4.29 Z-scores and the “TMRM Rescreen” value turned out to be 4.83 Z-scores. Further, in [2], the ATP turned out to be 5.75 Z-scores; the midpoint of the response, the EC50, lay at 30 nM; the Emax was 22.4%. Also, the neuritic area entry in [4] (after 48 h of treatment) is “increase”. Besides, in assay [4], the “Mitochondrial Morphology” value is “elongated” and the “Neurite Area” value is on record as “increased”. Moreover, the “Surface area of mitochondria, p (treated vs untreated)” value in assay [7] was “p = 0.066”.
